Laboratory results taken from article PMC10105947, “Discovery of novel amino acid production traits by evolution of synthetic co-cultures” (Microbial Cell Factories, 2023).

Key:
ArgT [1] = target: T1, ArgT (Corynebacterium glutamicum, UniProt Q8NQU2); experiment: isothermal titration calorimetry, purified His10-ArgT; assay type: binding
T1 construct: His10-ArgT, variant with cleavable His-tag and lacking the signal peptide

ArgT [2] = target: T1, ArgT; experiment: isothermal titration calorimetry, purified His10-ArgT (one measurement); assay type: binding

T1 sequence (Q8NQU2 27-304): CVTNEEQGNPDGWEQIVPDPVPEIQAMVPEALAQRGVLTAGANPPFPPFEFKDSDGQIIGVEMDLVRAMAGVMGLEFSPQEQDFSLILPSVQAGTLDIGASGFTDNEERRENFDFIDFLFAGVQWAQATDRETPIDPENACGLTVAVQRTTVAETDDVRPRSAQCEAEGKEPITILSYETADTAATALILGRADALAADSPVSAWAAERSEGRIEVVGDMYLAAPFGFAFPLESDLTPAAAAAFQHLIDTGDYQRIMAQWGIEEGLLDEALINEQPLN

Row | SMILES | Kd (ArgT [1]) | Kd (ArgT [2])
1 | N=C(N)NCCC[C@H](N)C(=O)O [L-arginine] | 29.5 ± 4.8 nM | –
2 | NC(=O)NCCC[C@H](N)C(=O)O [L-citrulline] | – | 432 nM
